According to US20150291570A1, “Substituted N-(tetrazol-5-yl)- and N-(triazol-5-yl)arylcarboxamide compounds and their use as herbicides” (BASF SE, priority 2012, published 2015):

Key:
Type in all cases: in vivo
[1] = test system: Abutilon theophrasti (velvetleaf); assay: Greenhouse post-emergence treatment of Abutilon theophrasti; details: application rate 1000 g/ha, scale 0 (no damage) to 100 (complete destruction)
Description: (§1) The seeds of the test plants were sown separately for each species. For the post-emergence treatment, the test plants were first grown to a height of 3 to 15 cm, depending on the plant habit, and only then treated with the active ingredients which had been suspended or emulsified in water. For this purpose, the test plants were either sown directly and grown in the same containers, or they were first grown separately as seedlings and transplanted into the test containers a few days prior to treatment. Depending on the species, the plants were kept at 10-25° C. or 20-35° C. The test period extended over 2 to 4 weeks. During this time, the plants were tended, and their response to the individual treatments was evaluated. Evaluation was carried out using a scale from 0 to 100. 100 means no emergence of the plants, or complete destruction of at least the aerial moieties, and 0 means no damage, or normal course of growth. A good herbicidal activity is given at values of at least 70 and a very good herbicidal activity is given at values of at least 85. The plants used in the greenhouse experiments belonged to the following species: [table]

[2] = test system: Echinochloa crus-galli (barnyard grass); assay: Greenhouse post-emergence treatment of Echinochloa crus-galli; details: application rate 1000 g/ha, scale 0 to 100
Description: as §1

[3] = test system: Amaranthus retroflexus L. (pigweed); assay: Greenhouse pre-emergence treatment of Amaranthus retroflexus; details: application rate 1000 g/ha, scale 0 to 100
Description: The seeds of the test plants were sown separately for each species. For the pre-emergence treatment, the active ingredients, which had been suspended or emulsified in water, were applied directly after sowing by means of finely distributing nozzles. The containers were irrigated gently to promote germination and growth and subsequently covered with transparent plastic hoods until the plants had rooted. This cover caused uniform germination of the test plants, unless this has been impaired by the active ingredients. Depending on the species, the plants were kept at 10-25° C. or 20-35° C. The test period extended over 2 to 4 weeks. During this time, the plants were tended, and their response to the individual treatments was evaluated. Evaluation was carried out using a scale from 0 to 100. 100 means no emergence of the plants, or complete destruction of at least the aerial moieties, and 0 means no damage, or normal course of growth. A good herbicidal activity is given at values of at least 70 and a very good herbicidal activity is given at values of at least 85. The plants used in the greenhouse experiments belonged to the following species: [table]

SMILES	damage [%] [1]	damage [%] [2]	damage [%] [3]
CON=C1CCS(=O)(=O)c2ccc(C(=O)Nc3ncnn3C)c(C)c21 [I.A-47]	100%	95%	70%
CON=C1CCS(=O)(=O)c2ccc(C(=O)Nc3nnnn3C)c(C)c21 [V.A-47]	100%	100%	100%
